Measurements published in patent US10717966B2, “Stem cell-derived hepatocytes in co-culture and uses thereof” (Colorado State University Research Foundation, priority 2014, dated 2020).
Entries after “also recorded” stand apart in the source; their conditions may differ. Where a name gives a salt, the structure may show the parent alone. Read-outs that look alike come from different tables or passages of the source.

Key:
[1] = cited from earlier work; for DILI Cat (DILI category): human, in vivo; for DILI Sev (DILI severity score from the LTKB of the FDA): negative number: withdrawn from the market, higher positive numbers, greater DILI concern
[2] = test system: iMPCCs; assay: Drug-drug interaction: acetaminophen with BSO in iMPCCs; assay type: cell-based, human; conditions: APAP 25·Cmax and 50·Cmax, BSO 200 μM
[3] = test system: primary hepatocytes (HUM4011, Triangle Research Labs); conditions: human
[4] = test system: iMPCCs (iHep micropatterned co-cultures); conditions: human
[5] = test system: primary hepatocyte sandwich culture; conditions: human, cited from earlier work
[6] = test system: iCCs (confluent monolayer cultures of iHeps); conditions: human; for Toxicity call in iCCs: 6 days
[7] = test system: iMPCCs; assay: 8-day drug toxicity study in iMPCCs (albumin and urea); conditions: 8 days, multiple doses
[8] = test system: primary human hepatocytes in MPCCs; conditions: cited from earlier work
[9] = total human plasma concentration; cited from earlier work
[10] = test system: iMPCCs (iHep micropatterned co-cultures); assay: Drug toxicity screening in iMPCCs (albumin, ATP, urea; binary decision and TC50); conditions: interpolated concentration at which activity decreases by 50% of DMSO-only controls
[11] = test system: CYP1A2; assay: CYP1A2 induction in iMPCCs (7-ethoxyresorufin O-dealkylation); assay type: cell-based, human
[12] = test system: CYP2C9 and CYP3A4; conditions: human
[13] = test system: CYP450 (3A4, 2C9)
[14] = test system: CYP2C9 and CYP3A4; assay: Drug-mediated CYP enzyme induction in iCCs; conditions: rifampicin 25 μM, phenobarbital 1 mM, 4 days
Wherever DILI Cat (DILI category) is given: key: P1: DILI type 1, dose dependent (toxic); P2: DILI type 2, idiosyncratic (toxic); N1: not known to cause liver injury (nontoxic); N2: sporadic cases (<10) of liver injury reported but generally considered safe drug to use by doctors (nontoxic); O1: hepatotoxic in animals untested in humans (toxic); O2: elevated liver enzymes observed in humans but does not lead to frank liver toxicity (nontoxic).

In the case of `C#CC1(O)CC[C@H]2[C@@H]3CCC4=CC(=O)CC[C@@H]4[C@H]3CC[C@@]21CC` (mixture of isomers) [Norgestrel], the “DILI Cat (DILI category)” value [1] is given as “P2”.
In the case of `CC(=O)Nc1ccc(O)cc1` [Acetaminophen], the “Toxicity of APAP when combined with BSO” value [2] is given as “substantial increase in toxicity” and the “DILI Cat (DILI category)” value [1] is given as “P2”.
With `CC(=O)Nc1nnc(S(N)(=O)=O)s1` [Acetazolamide] the “Toxicity call in another donor of primary hepatocytes” value (“Toxicity call in another donor” below) [3] was “false negative”.
For `CC(=O)Oc1ccccc1C(=O)O` [Aspirin], the “DILI Cat (DILI category)” value [1] is given as “O2” and the “Model predictions iMPCC (binary decision of toxicity)” value ([4]; 6 days) is given as “−”.
For `CCc1oc2ccccc2c1C(=O)c1cc(Br)c(O)c(Br)c1` [Benzbromarone], the “DILI Cat (DILI category)” value [1] is given as “P1”.
In the case of `CNCCc1ccccn1.Cl.Cl` [Betahistine 2HCl], the “DILI Cat (DILI category)” value [1] is listed as “P2”.
In the case of `O=C1CC2(CCCC2)CC(=O)N1CCCCN1CCN(c2ncccn2)CC1` [Buspirone], the “DILI Cat (DILI category)” value [1] is listed as “N1”.
For `C[C@H](CS)C(=O)N1CCC[C@H]1C(=O)O` [Captopril], the “DILI Cat (DILI category)” value [1] is given as “P2” and the “DILI Sev (DILI severity score from the LTKB of the FDA)” value (“DILI Sev” below) [1] is given as 7.
In the case of `CCCCCCCCCCCCCCCC(=O)OC[C@@H](NC(=O)C(Cl)Cl)[C@H](O)c1ccc([N+](=O)[O-])cc1` [Chloramphenicol palmitate], the “DILI Cat (DILI category)” value [1] is listed as “P2”.
For `O=C(O)c1cn(C2CC2)c2cc(N3CCNCC3)c(F)cc2c1=O` [Ciprofloxacin HCl], the “TC50 in iMPCCs, ATP” value ([4]; 6 days) was 804.2 µM.
For `CCN(CC)CCOc1ccc(C(=C(Cl)c2ccccc2)c2ccccc2)cc1` [Clomiphene citrate], the “DILI Cat (DILI category)” value [1] is given as “P2”.
In the case of `O=P1(N(CCCl)CCCl)NCCCO1` (centres unmarked) [Cyclophosphamide], the “Model predictions Sand (binary decision in sandwich cultures)” value (from here on “Model predictions Sand”) ([5]; primary hepatocyte sandwich culture) is listed as “−”.
For `CC(=O)O[C@]1(C(C)=O)CC[C@H]2[C@@H]3C=C(Cl)C4=CC(=O)[C@@H]5C[C@@H]5[C@]4(C)[C@H]3CC[C@@]21C` [Cyproterone acetate], the “Toxicity call in iCCs” value [6] is given as “non-toxic”, the “DILI Cat (DILI category)” value [1] is given as “O1” and the “Toxicity call in iMPCCs / iHeps” value ([4]; 6 days) is given as “toxic”.
For `C#C[C@]1(O)CC[C@H]2[C@@H]3CCC4=Cc5oncc5C[C@]4(C)[C@H]3CC[C@@]21C` [Danazol], the “DILI Cat (DILI category)” value [1] is given as “P1” and the “DILI Sev” value [1] is given as 8.
For `Nc1ccc(S(=O)(=O)c2ccc(N)cc2)cc1` [Dapsone], the “DILI Cat (DILI category)” value [1] is given as “P1” and the “Toxicity call in another donor” value [3] is given as “false negative”.
In the case of `C[C@@H]1C[C@H]2[C@@H]3CCC4=CC(=O)C=C[C@]4(C)[C@@]3(F)[C@@H](O)C[C@]2(C)[C@@]1(O)C(=O)CO` [Dexamethasone], the “DILI Cat (DILI category)” value [1] is given as “N1” and the “Model predictions iMPCC (binary decision of toxicity)” value ([4]; 6 days) is given as “−”.
In the case of `COc1ccc2c(c1)[C@]13CCCC[C@@H]1[C@H](C2)N(C)CC3` [Dextromethorphan HBr], the “Model predictions ICC (binary decision of toxicity)” value [6] is given as “−”, the “Albumin and urea production after exposure” value [7] is given as “minimally affected” and the “Model predictions Sand” value [5] is given as “−”.
For `O=C(O)Cc1ccccc1Nc1c(Cl)cccc1Cl` [Diclofenac], the “TC50 in MPCCs, Urea” value [8] is given as 208.2 µM, the “DILI Cat (DILI category)” value [1] is given as “P2” and the “DILI Sev” value [1] is given as 7.
For `C[C@]12CC[C@@H]3c4ccc(O)cc4CC[C@H]3[C@@H]1CCC2=O` [Estrone], the “DILI Cat (DILI category)” value [1] is given as “P2”.
In the case of `CNCCC(Oc1ccc(C(F)(F)F)cc1)c1ccccc1` (centres unmarked) [Fluoxetine], the Cmax [9] is given as 0.049 µM, the “DILI Cat (DILI category)” value [1] is given as “N2” and the “DILI Sev” value [1] is given as 3.
For `CC(C(=O)O)c1ccc(-c2ccccc2)c(F)c1` (centres unmarked) [Flurbiprofen], the “DILI Cat (DILI category)” value [1] is given as “P2” and the “Comparison of urea TC50 values, iHeps vs primary hepatocytes” value ([4]; 6 days) is given as “higher TC50 in iHeps”.
With `NC(=O)NO` [Hydroxyurea] the “TC50 in iMPCCs, ATP” value ([4]; 6 days) was 49358.3 µM.
For `CN(C)CCCN1c2ccccc2CCc2ccccc21` [Imipramine HCl], the “DILI Cat (DILI category)” value [1] is listed as “P2”.
For `NNC(=O)c1ccncc1` [Isoniazid], the “Toxicity call in iCCs” value [6] is given as “non-toxic”, the “TC50 in iMPCCs, Albumin” value [10] is given as 6681.1 µM and the “DILI Cat (DILI category)” value [1] is given as “P1”. For the same compound, the “Toxicity call in iMPCCs / iHeps” value ([4]; 6 days) was “toxic”.
For `O=C(O)/C=C\C(=O)O` [Maleic acid], the “Toxicity call in another donor” value [3] was “borderline positive”.
In the case of `Cc1cccc(Nc2ccccc2C(=O)O)c1C` [Mefenamic acid], the “DILI Cat (DILI category)” value [1] is listed as “P2”, the “TC50 in iMPCCs, ATP” value ([4]; 6 days) is listed as 2551.9 µM and the “TC50 in iMPCCs, Urea” value ([4]; 6 days) is listed as 572.2 µM.
For `CNCCC=C1c2ccccc2CCc2ccccc21` [Nortriptyline HCl], the “DILI Cat (DILI category)” value [1] is given as “P2”.
With `CCOc1ccc(NC(C)=O)cc1` [Phenacetin] the “Toxicity call in iCCs” value [6] was “not identified as toxic”.
In the case of `CCCCC1C(=O)N(c2ccccc2)N(c2ccccc2)C1=O` [Phenylbutazone], the “TC50 in MPCCs, ATP” value [8] is given as 7586.7 µM and the “DILI Cat (DILI category)” value [1] is given as “P2”.
In the case of `CN1C(C(=O)Nc2ccccn2)=C(O)c2ccccc2S1(=O)=O` [Piroxicam], the “DILI Cat (DILI category)” value [1] is listed as “P2” and the “Toxicity call in iMPCCs / iHeps” value ([4]; 6 days) is listed as “toxic”.
In the case of `CC(=O)[C@H]1CC[C@H]2[C@@H]3CCC4=CC(=O)CC[C@]4(C)[C@H]3CC[C@]12C` [Progesterone], the “DILI Cat (DILI category)” value [1] is given as “P2”.
In the case of `NC(=O)c1cnccn1` [Pyrazinamide], the “Toxicity call in iCCs” value [6] is listed as “non-toxic”, the “DILI Cat (DILI category)” value [1] is listed as “P2” and the “Toxicity call in iMPCCs / iHeps” value ([4]; 6 days) is listed as “toxic”.
In the case of `C=C[C@H]1C[N@@]2CC[C@H]1C[C@H]2[C@H](O)c1ccnc2ccc(OC)cc12` [Quinine], the “DILI Cat (DILI category)” value [1] is listed as “P2” and the “TC50 in iMPCCs, ATP” value ([4]; 6 days) is listed as 182.2 µM.
In the case of `CN(CCOc1ccc(CC2SC(=O)NC2=O)cc1)c1ccccn1` (centres unmarked) [Rosiglitazone], the “DILI Cat (DILI category)” value [1] is listed as “N2”.
In the case of `O=c1n(CCCN2CCN(c3cccc(Cl)c3)CC2)nc2ccccn12` [Trazodone HCl], the “DILI Cat (DILI category)” value [1] is listed as “P2” and the “TC50 in iMPCCs, ATP” value ([4]; 6 days) is listed as 351.5 µM.
In the case of `Cc1c(C)c2c(c(C)c1O)CCC(C)(COc1ccc(CC3SC(=O)NC3=O)cc1)O2` (centres unmarked) [Troglitazone], the “DILI Cat (DILI category)” value [1] is listed as “P1”.
In the case of `CC(=O)CC(c1ccccc1)c1c(O)c2ccccc2oc1=O` (centres unmarked) [Warfarin], the “Model predictions ICC (binary decision of toxicity)” value [6] is listed as “−” and the “Model predictions Sand” value [5] is listed as “−”.
With `CCN(CC)C(=O)/C(C#N)=C/c1cc(O)c(O)c([N+](=O)[O-])c1` [entacapone] the “Albumin secretions, time- and dose-dependent toxicity” value [4] was “time- and dose-dependent toxicities”.
In the case of `COc1ccc2[nH]c([S+]([O-])Cc3ncc(C)c(OC)c3C)nc2c1` (centres unmarked) [omeprazole], the “CYP1A2 fold induction in iMPCCs as % of values in PHH-MPCCs” value [11] is reported as about 70%.
For `CCC1(c2ccccc2)C(=O)NC(=O)NC1=O` [phenobarbital], the “Fold induction of CYP450 transcripts in iMPCCs relative to PHH-MPCCs” value [12] was 60-130%, the “Induction in CYP450 functions in iMPCCs relative to PHH-MPCCs” value [12] was 44-79% and the “Induction of CYP450 (3A4, 2C9) transcripts and functions in PHH-MPCCs” value [13] was “induction”. The “CYP induction response (functional activity) in iCCs” value [14] was “induced functional activity; also recorded: severely blunted”.
For `Cc1ccc(C(=O)c2cc(O)c(O)c([N+](=O)[O-])c2)cc1` [tolcapone], the “Albumin secretions, time- and dose-dependent toxicity” value [4] was “time- and dose-dependent toxicities”.
